Results published in US20050245452A1, “Pharmaceutical use of novispirins” (Novozymes A/S, priority 2004, published 2005).

Tested on: Pseudomonas aeruginosa (ATCC 27853)
Assay: Pseudomonas aeruginosa wound infection in pigs (wound chambers, 4 hour time course)
Type: in vivo, Göttinger minipigs
Method: The bacterial strain, Pseudomonas aeruginosa, used in the study was ATCC 27853. The amino acid sequence of Novispirin G10 is shown in SEQ ID NO: 16.
Novispirin G10 was diluted in 0.01% acetic acid containing 0.1% BSA with a final concentration of 1 mg (substrate)/ml (solution); 100 micrograms/ml and 10 micrograms/ml. The carrier control was 0.01% acetic acid containing 0.1% BSA.
The chambers are made out of titanium, have a screw top cover (also made out of titanium) and have an inner diameter of 25 mm.
After providing permission to conduct experiments with vertebrates in compliance with German animal protection laws, Göttinger minipigs (Fa. Ellegaard, Dalmose, Denmark, male, No. 86242 and 86260, 12 months old, 35 kg weight) were chosen to implant the chambers on. The pigs were kept at least 2 weeks in the stable, fed a standard porcine diet and housed at 20° C. to 30° C. in an atmosphere of approximately 65% humidity with a light cycle of 12 hours on and 12 hours off. The pig used for this study appeared during the experiments clinically healthy—rectal temperature and body weight remained normal over the observed period.
Before wounding the skin was surgically prepared, washed with soap and desinfected with Octenisept (S&M, Norderstedt, Germany) for five minutes. Twelve wound chambers were implanted on the pigs back and flank between the base of the scapula and the iliac crest. The wounds were spaced a minimum of 5 cm apart and were created in four rows parallel to the columna vertebralis, two rows on each side of the columna vertebralis. The exact size and shape of the wounds were ensured by a special custom-made “round-scalpel”, which has a diameter of 33 mm. Epidermal, dermal subcutaneous tissue was removed, possible bleedings stanched by bipolar diathermy. The chambers were placed with an additionally secant v-incision at positions 6 respectively 12 o'clock on the musculus thoracicus longus fascia and the muscle fascia of the external ripcage muscles. The incisions were sutured with 4-0 Prolene followed by the closure of the chambers. Povidone-iodine salve (Betaisodonna-salve, Mundipharma, Austria) was smothered on the wound edges. The chambers were dressed with paraffin gauze (Jelonet, Smith & Nephew, Lohfelden, Germany) and sterile compresses (Johnson & Johnson, Gargrave, UK). Dressings were changed every second day under sedation (as described above).
Bacterial Background of each chamber was measured every second day to detect potential contamination. One contaminated chamber was detected. Eight days post operation all chambers were inoculated with bacteria.
For bacteria progeny, Pseudomonas aeruginosa (ATCC 27853) was plated on LB-Agar plates and incubated at 37° C. for 18 hours. One colony was picked, and transferred into 3 ml LB-Medium and grown over night at 37° C. at 300 rpm. The over night culture was diluted in 50 ml fresh LB-Medium and incubated for 2.5 hours at 37° C. at 200 rpm.
Bacteria were centrifuged at 4000 rpm, 5 min (Mergafuge 1.0 R, Heraeus, Hanau, Germany), and the pellet was resuspended in PBS. The amount of containing bacteria was determined by OD600 nm-measurement and calculated as follows: Colony forming Unit/ml=OD600 nm×2.5×10^8 (bacteria)
To inoculate one chamber, 5×10^8CFU were used.
The establishment of the infection was proven by the measurment of bacterial counts per chamber. All inoculated chambers were infected after two days.
At fourth day post infection, the antimicrobial effect of the testing substrate was measured in a time course of 4 hours in duration. Each chamber was cleaned before starting the time course, wound fluid was selected and blood clots were discarded. Before starting the time course each chamber was inoculated again with 1×10^8 CFU Pseudomonas aeruginosa to get an equal bacterial amount for each chamber. One ml of the prepared samples with diluted test substrate and carrier control were applied in selected chambers.
Each chamber was rinsed with the applied solution several times. […]

For “Novispirin G10: novispirin antimicrobial polypeptide; amino acid sequence shown in SEQ ID NO: 16 (KNLRRIIRKGIHIIKKYG; Synthetic antimicrobial peptide)”, the “Mean CFU per ml sample volume (chamber fluid)” value (“Mean CFU per ml sample volume” below) (1 mg applied (1 ml of 1 mg/ml), 0.05 hours) was 667 CFU/ml, the “Mean CFU per ml sample volume” value (1 mg applied (1 ml of 1 mg/ml), 1 hour) was 1933 CFU/ml and the “Mean CFU per ml sample volume” value (1 mg applied (1 ml of 1 mg/ml), 2 hours) was 1167 CFU/ml. For the same substance, the “Mean CFU per ml sample volume” value (1 mg applied (1 ml of 1 mg/ml), 3 hours) was 517 CFU/ml, the “Mean CFU per ml sample volume” value (1 mg applied (1 ml of 1 mg/ml), 4 hours) was 733 CFU/ml and the “Mean CFU per ml sample volume” value (10 micrograms applied (1 ml of 10 micrograms/ml), 0.05 hours) was 413869 CFU/ml. For the same substance, the “Mean CFU per ml sample volume” value (10 micrograms applied (1 ml of 10 micrograms/ml), 1 hour) was 1225733 CFU/ml, the “Mean CFU per ml sample volume” value (10 micrograms applied (1 ml of 10 micrograms/ml), 2 hours) was 34811 CFU/ml and the “Mean CFU per ml sample volume” value (10 micrograms applied (1 ml of 10 micrograms/ml), 3 hours) was 9612 CFU/ml. The “Mean CFU per ml sample volume” value (10 micrograms applied (1 ml of 10 micrograms/ml), 4 hours) was 17322 CFU/ml, the “Mean CFU per ml sample volume” value (100 micrograms applied (1 ml of 100 micrograms/ml), 0.05 hours) was 7383 CFU/ml and the “Mean CFU per ml sample volume” value (100 micrograms applied (1 ml of 100 micrograms/ml), 1 hour) was 138181 CFU/ml. The “Mean CFU per ml sample volume” value (100 micrograms applied (1 ml of 100 micrograms/ml), 2 hours) was 167413 CFU/ml, the “Mean CFU per ml sample volume” value (100 micrograms applied (1 ml of 100 micrograms/ml), 3 hours) was 11661 CFU/ml and the “Mean CFU per ml sample volume” value (100 micrograms applied (1 ml of 100 micrograms/ml), 4 hours) was 2467 CFU/ml.
